pKd: −log10 of the molar value. Calls of active or inactive are those of the source. The rule behind the calls is not given here. Where a SMILES comes first, the peptide text is derived from it. [ ]: non-standard residue; d: D form. Gly(N-piperonyl) = O=C(O)CNCc1ccc2c(c1)OCO2; Gly(N-propargyl) = C#CCNCC(=O)O; NFurfurylGly = O=C(O)CNCc1ccco1; NAllylGly = C=CCNCC(=O)O; Nleu = CC(C)CNCC(=O)O; Nlys = NCCCCNCC(=O)O
How the values were obtained:
[1] = biological target: T1, CREB-binding protein (Homo sapiens, UniProt Q92793); assay: Binding affinity to histidine tagged KIX domain of CREB-binding protein by fluorescence polarization assay
Target sequence in this assay (Q92793 whole entry, the tested form may be a part): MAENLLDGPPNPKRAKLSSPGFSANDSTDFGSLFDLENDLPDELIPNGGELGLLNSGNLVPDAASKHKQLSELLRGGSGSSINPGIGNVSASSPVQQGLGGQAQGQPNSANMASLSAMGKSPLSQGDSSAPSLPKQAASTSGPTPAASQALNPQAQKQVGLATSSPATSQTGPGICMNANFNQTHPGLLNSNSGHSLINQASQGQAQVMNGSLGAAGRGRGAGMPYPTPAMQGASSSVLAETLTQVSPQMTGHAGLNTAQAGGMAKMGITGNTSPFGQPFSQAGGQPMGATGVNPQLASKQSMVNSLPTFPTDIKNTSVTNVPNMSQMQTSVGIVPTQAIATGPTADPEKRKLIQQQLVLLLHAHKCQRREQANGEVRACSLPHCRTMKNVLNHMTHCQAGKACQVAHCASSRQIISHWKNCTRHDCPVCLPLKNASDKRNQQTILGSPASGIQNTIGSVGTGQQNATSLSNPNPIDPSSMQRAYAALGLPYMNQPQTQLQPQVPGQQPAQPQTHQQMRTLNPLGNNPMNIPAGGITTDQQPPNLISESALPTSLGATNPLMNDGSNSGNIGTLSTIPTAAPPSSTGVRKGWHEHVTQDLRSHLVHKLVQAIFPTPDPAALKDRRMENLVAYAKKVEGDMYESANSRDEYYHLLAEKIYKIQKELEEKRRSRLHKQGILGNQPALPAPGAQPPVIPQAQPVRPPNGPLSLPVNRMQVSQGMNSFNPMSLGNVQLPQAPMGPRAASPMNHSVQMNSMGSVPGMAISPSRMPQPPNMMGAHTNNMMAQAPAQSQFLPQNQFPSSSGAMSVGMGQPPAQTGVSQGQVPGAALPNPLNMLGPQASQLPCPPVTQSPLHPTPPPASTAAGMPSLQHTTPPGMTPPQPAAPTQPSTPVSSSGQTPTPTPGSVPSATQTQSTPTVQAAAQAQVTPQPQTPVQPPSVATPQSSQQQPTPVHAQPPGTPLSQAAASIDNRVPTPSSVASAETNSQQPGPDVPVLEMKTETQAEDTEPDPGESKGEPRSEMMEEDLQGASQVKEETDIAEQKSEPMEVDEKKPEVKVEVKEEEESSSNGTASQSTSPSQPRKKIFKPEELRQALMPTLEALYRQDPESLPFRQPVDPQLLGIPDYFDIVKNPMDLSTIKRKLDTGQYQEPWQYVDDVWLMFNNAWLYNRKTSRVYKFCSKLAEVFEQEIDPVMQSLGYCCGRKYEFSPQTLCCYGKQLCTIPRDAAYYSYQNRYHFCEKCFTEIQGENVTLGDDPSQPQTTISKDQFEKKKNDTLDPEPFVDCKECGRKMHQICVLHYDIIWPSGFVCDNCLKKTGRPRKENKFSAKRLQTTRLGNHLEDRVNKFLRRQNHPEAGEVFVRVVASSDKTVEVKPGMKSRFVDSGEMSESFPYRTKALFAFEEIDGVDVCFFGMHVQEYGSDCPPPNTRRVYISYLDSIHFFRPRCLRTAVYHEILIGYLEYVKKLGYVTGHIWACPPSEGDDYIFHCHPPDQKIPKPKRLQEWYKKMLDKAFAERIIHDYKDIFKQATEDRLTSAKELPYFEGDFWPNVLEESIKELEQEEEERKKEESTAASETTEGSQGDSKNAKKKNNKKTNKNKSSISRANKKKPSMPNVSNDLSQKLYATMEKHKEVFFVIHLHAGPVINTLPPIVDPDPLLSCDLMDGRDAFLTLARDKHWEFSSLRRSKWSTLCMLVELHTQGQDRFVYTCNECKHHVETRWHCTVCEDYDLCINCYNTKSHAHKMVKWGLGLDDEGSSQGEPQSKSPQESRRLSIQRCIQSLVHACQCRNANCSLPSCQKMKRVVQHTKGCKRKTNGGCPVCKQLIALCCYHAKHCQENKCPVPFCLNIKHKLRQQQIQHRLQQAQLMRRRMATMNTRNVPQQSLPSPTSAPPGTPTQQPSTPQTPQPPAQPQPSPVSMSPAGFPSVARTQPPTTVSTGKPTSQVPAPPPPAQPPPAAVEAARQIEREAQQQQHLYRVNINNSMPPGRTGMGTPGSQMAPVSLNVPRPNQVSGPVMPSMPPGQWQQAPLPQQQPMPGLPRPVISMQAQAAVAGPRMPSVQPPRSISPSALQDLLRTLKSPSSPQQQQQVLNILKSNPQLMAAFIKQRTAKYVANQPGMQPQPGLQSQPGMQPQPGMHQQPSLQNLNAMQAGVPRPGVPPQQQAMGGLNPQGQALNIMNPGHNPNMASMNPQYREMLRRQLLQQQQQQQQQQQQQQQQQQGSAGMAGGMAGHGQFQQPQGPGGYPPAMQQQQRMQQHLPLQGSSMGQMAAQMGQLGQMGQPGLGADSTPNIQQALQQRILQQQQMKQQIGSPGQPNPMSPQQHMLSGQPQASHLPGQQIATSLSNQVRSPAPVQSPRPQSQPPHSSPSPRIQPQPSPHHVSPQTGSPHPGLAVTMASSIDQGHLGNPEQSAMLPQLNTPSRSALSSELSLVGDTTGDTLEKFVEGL

[2] = biological target: T1, CREB-binding protein; assay: Binding affinity to histidine tagged KIX domain of CREB-binding protein expressed in Escherichia coli by affinity purification assay
Target sequence in this assay (Q92793 2-2442 limits assumed): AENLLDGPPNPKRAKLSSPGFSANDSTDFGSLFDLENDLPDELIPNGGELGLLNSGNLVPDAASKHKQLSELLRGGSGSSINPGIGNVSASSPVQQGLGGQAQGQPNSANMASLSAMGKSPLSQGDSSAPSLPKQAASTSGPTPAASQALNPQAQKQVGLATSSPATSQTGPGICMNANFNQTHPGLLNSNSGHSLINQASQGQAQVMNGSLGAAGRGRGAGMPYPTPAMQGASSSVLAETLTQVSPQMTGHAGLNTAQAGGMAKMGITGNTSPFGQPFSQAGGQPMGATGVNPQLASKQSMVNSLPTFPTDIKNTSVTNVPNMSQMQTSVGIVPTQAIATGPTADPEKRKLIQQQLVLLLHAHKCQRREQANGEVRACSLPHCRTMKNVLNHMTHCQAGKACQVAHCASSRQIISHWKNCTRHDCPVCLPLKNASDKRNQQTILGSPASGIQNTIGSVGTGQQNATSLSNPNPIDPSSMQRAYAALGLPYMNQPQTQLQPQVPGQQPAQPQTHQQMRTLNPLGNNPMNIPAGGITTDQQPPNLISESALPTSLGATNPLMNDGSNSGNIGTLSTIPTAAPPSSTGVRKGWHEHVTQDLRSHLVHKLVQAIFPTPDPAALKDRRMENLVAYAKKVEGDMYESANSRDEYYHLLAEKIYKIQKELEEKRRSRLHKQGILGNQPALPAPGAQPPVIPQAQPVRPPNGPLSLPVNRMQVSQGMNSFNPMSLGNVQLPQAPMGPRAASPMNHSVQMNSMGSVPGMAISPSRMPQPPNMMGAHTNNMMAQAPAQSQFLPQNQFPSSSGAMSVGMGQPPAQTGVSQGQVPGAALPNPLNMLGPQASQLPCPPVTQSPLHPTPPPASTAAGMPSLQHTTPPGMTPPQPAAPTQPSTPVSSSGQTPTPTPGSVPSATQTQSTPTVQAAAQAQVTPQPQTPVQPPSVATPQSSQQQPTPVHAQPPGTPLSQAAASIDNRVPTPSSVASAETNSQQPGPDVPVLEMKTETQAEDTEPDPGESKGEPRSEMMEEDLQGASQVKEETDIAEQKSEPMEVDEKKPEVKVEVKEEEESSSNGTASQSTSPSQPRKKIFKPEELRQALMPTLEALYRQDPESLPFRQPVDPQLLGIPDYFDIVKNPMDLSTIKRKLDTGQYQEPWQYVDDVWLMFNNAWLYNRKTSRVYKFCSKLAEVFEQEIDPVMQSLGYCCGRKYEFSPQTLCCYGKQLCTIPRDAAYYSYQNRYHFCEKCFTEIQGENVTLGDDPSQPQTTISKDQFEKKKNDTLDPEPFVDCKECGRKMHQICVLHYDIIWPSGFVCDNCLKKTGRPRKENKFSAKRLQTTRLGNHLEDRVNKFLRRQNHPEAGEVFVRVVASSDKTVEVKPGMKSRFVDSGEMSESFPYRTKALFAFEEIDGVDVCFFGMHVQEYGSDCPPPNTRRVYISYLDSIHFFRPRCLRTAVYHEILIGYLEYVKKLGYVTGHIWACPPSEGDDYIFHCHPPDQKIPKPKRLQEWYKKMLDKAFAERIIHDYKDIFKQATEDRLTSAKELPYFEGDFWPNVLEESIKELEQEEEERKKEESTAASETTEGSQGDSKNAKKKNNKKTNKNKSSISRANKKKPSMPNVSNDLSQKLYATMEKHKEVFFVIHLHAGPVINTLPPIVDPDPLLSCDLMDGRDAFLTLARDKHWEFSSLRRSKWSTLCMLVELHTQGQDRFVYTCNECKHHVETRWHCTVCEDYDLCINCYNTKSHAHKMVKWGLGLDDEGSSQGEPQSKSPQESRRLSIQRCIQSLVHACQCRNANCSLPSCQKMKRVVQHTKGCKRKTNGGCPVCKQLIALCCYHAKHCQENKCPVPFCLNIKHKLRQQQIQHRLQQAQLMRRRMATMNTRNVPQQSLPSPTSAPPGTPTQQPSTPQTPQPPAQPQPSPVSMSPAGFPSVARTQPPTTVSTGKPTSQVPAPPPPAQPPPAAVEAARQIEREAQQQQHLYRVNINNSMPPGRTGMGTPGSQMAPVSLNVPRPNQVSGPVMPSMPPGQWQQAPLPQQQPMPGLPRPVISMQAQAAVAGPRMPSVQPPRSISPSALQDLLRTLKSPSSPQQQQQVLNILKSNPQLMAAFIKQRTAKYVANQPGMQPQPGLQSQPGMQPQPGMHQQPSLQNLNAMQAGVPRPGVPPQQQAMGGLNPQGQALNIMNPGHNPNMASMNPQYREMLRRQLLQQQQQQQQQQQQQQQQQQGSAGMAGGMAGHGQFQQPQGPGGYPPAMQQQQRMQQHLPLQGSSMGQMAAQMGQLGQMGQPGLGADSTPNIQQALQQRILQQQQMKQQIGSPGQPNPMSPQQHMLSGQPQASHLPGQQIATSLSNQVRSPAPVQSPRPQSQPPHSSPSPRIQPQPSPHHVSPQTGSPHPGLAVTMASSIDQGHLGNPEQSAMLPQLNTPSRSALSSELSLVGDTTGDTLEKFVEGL

| pKd [1] | Activity [2] | Compound |
| --- | --- | --- |
| 4.14 |  | CC(C)CN(CC(=O)N(CC(=O)N(CCCCN)CC(=O)N(CC(=O)N(CCCCn1cc(CNCC(=O)N(CC(=O)N(CCO)CC(=O)N(CC(=O)N(CC(=O)N(CCCCN)CC(=O)N(CC(N)=O)Cc2ccco2)Cc2ccco2)Cc2ccc3c(c2)OCO3)Cc2ccco2)nn1)CC(N)=O)Cc1ccc2c(c1)OCO2)Cc1ccc2c(c1)OCO2)C(=O)CN(CCCCN)C(=O)CNCc1ccc2c(c1)OCO2 |
| 3.71 | inactive | CC(C)CN(CC(=O)N(CCCCN)CC(=O)N(CC(N)=O)Cc1ccc2c(c1)OCO2)C(=O)CN(Cc1ccc2c(c1)OCO2)C(=O)CN(CCCCN)C(=O)CNCc1ccc2c(c1)OCO2 (H-[Gly(N-piperonyl)][Nlys][Gly(N-piperonyl)][Nleu][Nlys][Gly(N-piperonyl)]-NH2) |
| 5.34 | Active | C#CCNCC(=O)N(CC(=O)N(CC(=O)N(CC(=O)N(CC(=O)N(CC=C)CC(=O)N(CC(N)=O)CC(C)C)Cc1ccco1)Cc1ccco1)Cc1ccco1)CC(C)C (H-[Gly(N-propargyl)][Nleu][NFurfurylGly][NFurfurylGly][NFurfurylGly][NAllylGly][Nleu]-NH2) |
| 5.08 |  | C=CCN(CC(=O)N(CC(N)=O)CC(C)C)C(=O)CN(Cc1ccco1)C(=O)CN(Cc1ccco1)C(=O)CN(Cc1ccco1)C(=O)CN(CC(C)C)C(=O)CNCc1cn(CCCCN(CC(N)=O)C(=O)CN(Cc2ccc3c(c2)OCO3)C(=O)CN(CCCCN)C(=O)CN(Cc2ccc3c(c2)OCO3)C(=O)CN(CC(C)C)C(=O)CN(CCCCN)C(=O)CNCc2ccc3c(c2)OCO3)nn1 |
